≈ marks a conversion by molar mass, not a printed value.
Key:
[1] = tested on: Mycobacterium tuberculosis H37Rv (ATCC: 25177); experiment: Resazurin Microplate Assay (REMA), anti-tubercular activity against H37Rv; format: cell-based; settings: 192 h, read-out: Anti-tubercular activity (MIC) H37Rv

Row | Compound | melting point [°C] | MIC [1] [µg/mL]
1 | O=c1[nH]c(=O)c2c(-c3c[nH]c4ccccc34)nc(=S)[nH]c2[nH]1 [Compound 4a, 5-(1H-Indol-3-yl)-7-thioxo-7,8-dihydropyrimido[4,5-d]pyrimidine-2,4(1H,3H)-dione] | 114 to 116 | 4 (≈ 12.8 µM)
2 | O=c1[nH]c(=S)[nH]c2[nH]c(=S)nc(-c3c[nH]c4ccccc34)c12 [Compound 4b, 5-(1H-Indol-3-yl)-2,7-dithioxo-2,3,7,8-tetrahydropyrimido[4,5-d]pyrimidin-4(1H)-one] | 188 to 190 | 2 (≈ 6.11 µM)
3 | Cn1c(=O)c2c(-c3c[nH]c4ccccc34)nc(=S)[nH]c2n(C)c1=O [Compound 4c, 5-(1H-Indol-3-yl)-1,3-dimethyl-7-thioxo-7,8-dihydropyrimido[4,5-d]pyrimidine-2,4(1H,3H)-dione] | 258 to 260 | 1 (≈ 2.95 µM)

From patent US11976076B1 (priority 2023, dated 2024)
